Measurements published in US20080009418A1, “Selective Inhibitors” (Alchemia LTD., priority 2004, published 2008).

Key:
[1] = molecular target: T1, Human melanin-concentrating hormone (MCH1) (Homo sapiens, UniProt Q99705); test: Radioligand binding, human melanin-concentrating hormone MCH1 membranes, FlashPlate, [125I]-S36057; settings: compound at 10 μM; for A6: inhibition of radioligand binding, human melanin-concentrating hormone (MCH1): [125I]-S36057
T1 construct: purchased Perkin Elmer Biosignal
T1 sequence (Q99705 whole entry): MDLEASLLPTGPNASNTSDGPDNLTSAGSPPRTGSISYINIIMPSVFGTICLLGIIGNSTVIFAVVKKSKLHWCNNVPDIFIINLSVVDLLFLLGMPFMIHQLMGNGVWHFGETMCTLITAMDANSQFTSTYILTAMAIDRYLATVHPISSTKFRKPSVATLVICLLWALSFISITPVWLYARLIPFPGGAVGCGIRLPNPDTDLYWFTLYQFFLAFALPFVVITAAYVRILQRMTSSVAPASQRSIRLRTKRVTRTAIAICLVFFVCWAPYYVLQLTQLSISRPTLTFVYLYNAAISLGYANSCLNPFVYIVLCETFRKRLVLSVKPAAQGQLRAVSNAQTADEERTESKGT
How it was run: (§1)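 Cloned human receptor membranes were coated onto FlashPlate wells and incubated with radioligand and compound (added from a 0.5 mM DMSO daughter plate) for 1 hour at room temperature in the dark. Scintillation counting gave percent inhibition, with DMSO defining total and reference ligand defining non-specific binding.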

[2] = molecular target: T2, Human melanocortin (MC5) (Homo sapiens, UniProt P33032); test: Radioligand binding, human melanocortin MC5 membranes, FlashPlate, [125I]-NDP-αMSH; settings: compound at 10 μM, [125I]-NDP-αMSH
T2 construct: purchased Perkin Elmer Biosignal
T2 sequence (P33032 whole entry): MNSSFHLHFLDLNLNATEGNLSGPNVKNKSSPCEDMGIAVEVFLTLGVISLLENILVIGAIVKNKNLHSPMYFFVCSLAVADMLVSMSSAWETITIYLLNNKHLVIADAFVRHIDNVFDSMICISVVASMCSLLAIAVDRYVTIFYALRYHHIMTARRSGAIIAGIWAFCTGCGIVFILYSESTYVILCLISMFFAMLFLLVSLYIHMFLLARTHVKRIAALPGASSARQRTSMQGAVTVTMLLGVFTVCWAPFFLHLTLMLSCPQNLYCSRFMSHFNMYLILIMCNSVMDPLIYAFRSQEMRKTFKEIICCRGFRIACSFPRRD
How it was run: as §1

[3] = molecular target: T3, Human opioid (ORL1) (Homo sapiens, UniProt P41146); test: Radioligand binding, human opioid ORL1 membranes, FlashPlate, [125I]-Nociceptin; settings: compound at 10 μM, [125I]-Nociceptin
T3 construct: purchased Perkin Elmer Biosignal
T3 sequence (P41146 whole entry): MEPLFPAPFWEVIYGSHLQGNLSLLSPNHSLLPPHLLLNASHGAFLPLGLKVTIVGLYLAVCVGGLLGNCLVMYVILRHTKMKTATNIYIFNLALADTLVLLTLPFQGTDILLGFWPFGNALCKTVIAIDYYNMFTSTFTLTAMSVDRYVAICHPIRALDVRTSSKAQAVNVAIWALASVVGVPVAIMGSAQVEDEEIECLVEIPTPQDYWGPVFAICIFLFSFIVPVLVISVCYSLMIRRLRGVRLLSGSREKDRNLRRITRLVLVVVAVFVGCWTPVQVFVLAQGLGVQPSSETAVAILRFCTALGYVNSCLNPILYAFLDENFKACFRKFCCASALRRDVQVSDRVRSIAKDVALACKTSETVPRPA
How it was run: as §1

[4] = molecular target: T4, Human neuropeptide Y (NPY-Y1) (Homo sapiens, UniProt P25929); test: Radioligand binding, human neuropeptide Y NPY-Y1 membranes, FlashPlate, [125I]-PYY; settings: compound at 10 μM, [125I]-PYY
T4 construct: purchased Perkin Elmer Biosignal
T4 sequence (P25929 1-384): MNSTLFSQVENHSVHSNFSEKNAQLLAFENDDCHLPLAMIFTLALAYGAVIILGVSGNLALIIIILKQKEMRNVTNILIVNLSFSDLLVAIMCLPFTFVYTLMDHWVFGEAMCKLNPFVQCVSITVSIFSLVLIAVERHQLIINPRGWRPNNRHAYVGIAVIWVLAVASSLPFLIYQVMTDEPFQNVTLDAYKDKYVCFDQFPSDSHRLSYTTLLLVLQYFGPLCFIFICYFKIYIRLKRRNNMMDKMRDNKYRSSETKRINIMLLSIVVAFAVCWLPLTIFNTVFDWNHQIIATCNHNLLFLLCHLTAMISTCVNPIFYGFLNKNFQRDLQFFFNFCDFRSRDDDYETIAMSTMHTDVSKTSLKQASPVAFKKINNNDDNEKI
How it was run: as §1

[5] = molecular target: T5, Human κ-Opioid (KOP) (Homo sapiens, UniProt P41145); test: Radioligand binding, human κ-opioid (KOP) membranes, filtration, [3H]-Diprenorphine; settings: compound at 10 μM, [3H]-Diprenorphine
T5 construct: purchased Perkin Elmer Biosignal
T5 sequence (P41145 whole entry): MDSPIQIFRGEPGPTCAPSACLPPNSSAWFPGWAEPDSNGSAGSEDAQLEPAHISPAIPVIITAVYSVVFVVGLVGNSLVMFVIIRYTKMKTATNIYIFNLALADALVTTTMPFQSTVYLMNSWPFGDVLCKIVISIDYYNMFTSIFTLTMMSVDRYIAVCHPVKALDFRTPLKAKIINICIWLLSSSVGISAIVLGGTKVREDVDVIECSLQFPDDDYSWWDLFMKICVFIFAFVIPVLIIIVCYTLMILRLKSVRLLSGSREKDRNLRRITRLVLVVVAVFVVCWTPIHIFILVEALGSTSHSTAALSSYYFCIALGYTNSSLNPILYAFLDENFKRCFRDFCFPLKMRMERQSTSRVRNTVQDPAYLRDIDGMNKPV
How it was run: (§2)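 Membranes from cloned human receptors were incubated with compound and radioligand for 1 hour at room temperature. Bound ligand was collected on 0.3% PEI-soaked filters, washed with cold 50 mM Tris-HCl pH 7.4, and counted by scintillation. Percent inhibition was computed against DMSO totals and reference-ligand nonspecific wells.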

[6] = molecular target: T6, Human neurokinin (NK1) (Homo sapiens, UniProt P25103); test: Radioligand binding, human neurokinin NK1 membranes, filtration, [125I]-Substance P; settings: compound at 10 μM, [125I]-Substance P
T6 construct: purchased Perkin Elmer Biosignal
T6 sequence (P25103 whole entry): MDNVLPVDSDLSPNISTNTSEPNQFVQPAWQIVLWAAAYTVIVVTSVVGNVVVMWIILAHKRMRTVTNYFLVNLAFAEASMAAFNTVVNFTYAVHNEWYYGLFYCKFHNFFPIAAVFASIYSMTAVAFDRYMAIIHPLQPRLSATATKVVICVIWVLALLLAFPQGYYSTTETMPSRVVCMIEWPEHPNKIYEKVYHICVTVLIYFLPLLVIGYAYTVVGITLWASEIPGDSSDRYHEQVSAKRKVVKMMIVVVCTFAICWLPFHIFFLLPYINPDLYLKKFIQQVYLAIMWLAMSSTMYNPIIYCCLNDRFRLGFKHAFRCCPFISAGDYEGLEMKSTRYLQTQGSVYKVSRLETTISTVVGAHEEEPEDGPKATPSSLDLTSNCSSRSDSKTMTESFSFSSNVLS
How it was run: as §2

[7] = molecular target: T7, Human Melanocortin (MC3) (Homo sapiens, UniProt P41968); test: Radioligand binding, human melanocortin MC3 membranes, FlashPlate, [125I]-NDP-αMSH; settings: compound at 10 μM, [125I]-NDP-αMSH
T7 construct: purchased Perkin Elmer Biosignal
T7 sequence (P41968 whole entry): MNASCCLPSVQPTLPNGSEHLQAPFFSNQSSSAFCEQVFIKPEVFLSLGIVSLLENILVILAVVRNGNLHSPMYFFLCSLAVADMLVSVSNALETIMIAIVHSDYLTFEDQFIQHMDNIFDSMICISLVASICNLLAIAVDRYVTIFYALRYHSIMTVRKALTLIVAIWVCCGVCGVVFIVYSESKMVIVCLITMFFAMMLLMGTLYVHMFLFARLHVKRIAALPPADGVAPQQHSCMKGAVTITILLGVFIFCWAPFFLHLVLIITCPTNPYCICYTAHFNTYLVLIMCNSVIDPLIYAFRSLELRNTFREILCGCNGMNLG
How it was run: as §1

[8] = molecular target: T8, Human μ-opioid (MOP) (Homo sapiens, UniProt P35372); test: Radioligand binding, human μ-opioid (MOP) membranes, FlashPlate, [3H]-Naloxone; settings: compound at 10 μM, [3H]-Naloxone
T8 construct: purchased Perkin Elmer Biosignal
T8 sequence (P35372 whole entry): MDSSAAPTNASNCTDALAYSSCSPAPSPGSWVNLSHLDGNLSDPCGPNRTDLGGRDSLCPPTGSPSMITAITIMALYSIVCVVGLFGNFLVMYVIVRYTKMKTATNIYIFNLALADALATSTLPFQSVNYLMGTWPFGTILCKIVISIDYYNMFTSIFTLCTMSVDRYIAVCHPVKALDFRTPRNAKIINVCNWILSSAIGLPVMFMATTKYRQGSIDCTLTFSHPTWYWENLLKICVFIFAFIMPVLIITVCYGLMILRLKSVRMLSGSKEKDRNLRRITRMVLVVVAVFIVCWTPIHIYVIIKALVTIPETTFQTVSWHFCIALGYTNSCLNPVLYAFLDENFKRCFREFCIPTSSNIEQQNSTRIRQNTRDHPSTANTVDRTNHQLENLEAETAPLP
How it was run: as §1

[9] = molecular target: T9, Human Melanocortin (MC4) (Homo sapiens, UniProt P32245); test: Radioligand binding, human melanocortin MC4 membranes, FlashPlate, [125I]-NDP-αMSH; settings: compound at 10 μM, [125I]-NDP-αMSH
T9 construct: purchased Perkin Elmer Biosignal
T9 sequence (P32245 whole entry): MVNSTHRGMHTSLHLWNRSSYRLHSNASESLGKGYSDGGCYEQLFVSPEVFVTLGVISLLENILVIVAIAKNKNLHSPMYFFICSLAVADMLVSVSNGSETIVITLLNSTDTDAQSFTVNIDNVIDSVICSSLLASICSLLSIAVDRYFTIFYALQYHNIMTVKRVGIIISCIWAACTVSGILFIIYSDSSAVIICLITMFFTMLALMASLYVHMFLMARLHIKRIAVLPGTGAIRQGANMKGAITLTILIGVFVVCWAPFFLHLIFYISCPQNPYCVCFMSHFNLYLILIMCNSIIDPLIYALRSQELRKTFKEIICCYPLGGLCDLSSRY
How it was run: as §1

[10] = molecular target: T10, Mouse urotensin (mUR2) (Mus musculus, UniProt Q8VIH9); test: Radioligand binding, mouse urotensin mUR2 membranes, FlashPlate, [125I]-Urotensin II; settings: compound at 10 μM, [125I]-Urotensin II
T10 construct: purchased Perkin Elmer Biosignal
T10 sequence (Q8VIH9 1-385): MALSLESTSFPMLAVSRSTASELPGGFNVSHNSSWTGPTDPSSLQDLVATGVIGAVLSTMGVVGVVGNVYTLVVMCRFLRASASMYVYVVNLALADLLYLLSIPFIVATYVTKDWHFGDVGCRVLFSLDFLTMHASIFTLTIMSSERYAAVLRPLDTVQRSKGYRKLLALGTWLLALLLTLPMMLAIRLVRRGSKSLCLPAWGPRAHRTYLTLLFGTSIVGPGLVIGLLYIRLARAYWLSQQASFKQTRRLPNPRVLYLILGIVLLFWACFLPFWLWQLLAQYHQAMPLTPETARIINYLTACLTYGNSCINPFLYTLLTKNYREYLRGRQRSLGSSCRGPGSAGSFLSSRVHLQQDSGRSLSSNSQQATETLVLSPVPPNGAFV
How it was run: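 Cloned mouse urotensin (mUR2) receptor membranes from Perkin Elmer Biosignal were immobilized in FlashPlate microplates using a proprietary coating. Each well got 19.5 μl buffer, then 0.5 μl of DMSO, reference ligand, or compound. Adding 5 μl of [125I]-Urotensin II, diluted to 5× final concentration in binding buffer, started binding. Plates were sealed with TopSeal-A and incubated 1 hour at room temperature in the dark. Wells were counted for 30 seconds each on a TopCount after a 60-second delay, and percentage inhibition was calculated.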

[11] = molecular target: T11, Human δ-opioid (DOP) (Homo sapiens, UniProt P41143); test: Radioligand binding, human δ-opioid (DOP) membranes, FlashPlate, [3H]-Bremazocine; settings: compound at 10 μM, [3H]-Bremazocine
T11 construct: purchased Perkin Elmer Biosignal
T11 sequence (P41143 whole entry): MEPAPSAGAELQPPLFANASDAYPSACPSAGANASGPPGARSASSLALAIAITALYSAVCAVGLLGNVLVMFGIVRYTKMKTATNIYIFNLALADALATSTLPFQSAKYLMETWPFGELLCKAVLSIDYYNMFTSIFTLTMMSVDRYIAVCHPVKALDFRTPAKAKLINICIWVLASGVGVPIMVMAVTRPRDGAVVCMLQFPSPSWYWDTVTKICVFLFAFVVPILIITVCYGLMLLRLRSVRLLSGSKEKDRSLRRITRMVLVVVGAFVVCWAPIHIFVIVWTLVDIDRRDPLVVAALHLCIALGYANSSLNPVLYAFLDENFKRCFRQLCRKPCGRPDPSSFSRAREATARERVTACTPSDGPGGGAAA
How it was run: as §1

SMILES	A6: inhibition of radioligand binding, human melanin-concentrating hormone (MCH1) [1]	A5: inhibition of radioligand binding, human melanocortin (MC5) [2]	A10: inhibition of radioligand binding, human opioid (ORL1) [3]	A9: inhibition of radioligand binding, human neuropeptide Y (NPY-Y1) [4]	A2: inhibition of radioligand binding, human κ-opioid (KOP) [5]	A8: inhibition of radioligand binding, human neurokinin (NK1) [6]	A3: inhibition of radioligand binding, human melanocortin (MC3) [7]	A7: inhibition of radioligand binding, human μ-opioid (MOP) [8]	A4: inhibition of radioligand binding, human melanocortin (MC4) [9]	A11: inhibition of radioligand binding, mouse urotensin (mUR2) [10]	A1: inhibition of radioligand binding, human δ-opioid (DOP) [11]	other results
NCCCC(=O)NC1C(OCc2ccccc2)OC(COCc2ccc3ccccc3c2)C(O)C1OCc1ccccc1 (stereo not drawn) [compound 378]	− (“−” indicates less than 50% inhibition at 10 μM)	+ (“+” indicates greater than 50% inhibition at 10 μM)	− (“−” indicates less than 50% inhibition at 10 μM)	− (“−” indicates less than 50% inhibition at 10 μM)	− (“−” indicates less than 50% inhibition at 10 μM)	+ (“+” indicates greater than 50% inhibition at 10 μM)	− (“−” indicates less than 50% inhibition at 10 μM)	− (“−” indicates less than 50% inhibition at 10 μM)	+ (“+” indicates greater than 50% inhibition at 10 μM)	− (“−” indicates less than 50% inhibition at 10 μM)	− (“−” indicates less than 50% inhibition at 10 μM)	
NCCCC(=O)NC1C(OCc2ccccc2)OC(COCc2ccc3ccccc3c2)C(O)C1OCc1ccc2ccccc2c1 (stereo not drawn) [compound 375]	− (“−” indicates less than 50% inhibition at 10 μM)	+ (“+” indicates greater than 50% inhibition at 10 μM)	− (“−” indicates less than 50% inhibition at 10 μM)	− (“−” indicates less than 50% inhibition at 10 μM)	− (“−” indicates less than 50% inhibition at 10 μM)	+ (“+” indicates greater than 50% inhibition at 10 μM)	− (“−” indicates less than 50% inhibition at 10 μM)	− (“−” indicates less than 50% inhibition at 10 μM)	+ (“+” indicates greater than 50% inhibition at 10 μM)	− (“−” indicates less than 50% inhibition at 10 μM)	− (“−” indicates less than 50% inhibition at 10 μM)	
NCCCC(=O)NC1C(OCc2ccc3ccccc3c2)OC(COCc2ccc3ccccc3c2)C(O)C1OCc1ccc2ccccc2c1 (single isomer, unassigned) [compound 461]												A6: inhibition of radioligand binding ([1]; [125I]-S36057, human MCH1 membranes, 10 µM): + (“+” indicates greater than 50% inhibition at 10 μM); A5: inhibition of radioligand binding ([2]; human MC5 membranes): + (“+” indicates greater than 50% inhibition at 10 μM); A10: inhibition of radioligand binding ([3]; human ORL1 membranes, 10 µM): + (“+” indicates greater than 50% inhibition at 10 μM); A9: inhibition of radioligand binding ([4]; human NPY-Y1 membranes): − (“−” indicates less than 50% inhibition at 10 μM); A2: inhibition of radioligand binding ([5]; human KOP membranes): − (“−” indicates less than 50% inhibition at 10 μM); A8: inhibition of radioligand binding ([6]; human NK1 membranes): + (“+” indicates greater than 50% inhibition at 10 μM); A3: inhibition of radioligand binding ([7]; human MC3 membranes, 10 µM): + (“+” indicates greater than 50% inhibition at 10 μM); A7: inhibition of radioligand binding ([8]; human MOP membranes, 10 µM): + (“+” indicates greater than 50% inhibition at 10 μM); A4: inhibition of radioligand binding ([9]; human MC4 membranes, 10 µM): + (“+” indicates greater than 50% inhibition at 10 μM); A11: inhibition of radioligand binding ([10]; mouse mUR2 membranes): − (“−” indicates less than 50% inhibition at 10 μM); A1: inhibition of radioligand binding ([11]; human DOP membranes): − (“−” indicates less than 50% inhibition at 10 μM)
